Test results reported in PubChem BioAssay (NCI).
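Interpolation was linear, between the two tested concentrations surrounding the appropriate level; five concentrations were tested over 48 hours in 96-well plates. TGI denotes the concentration required for complete inhibition of growth.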

Tests used:
Experiment in all cases: inhibition of tumour cell growth, NCI panel, 48 h
[1] = system: 786-0 renal
[2] = system: A498 renal
[3] = system: A549 NSCLC
[4] = system: ACHN renal
[5] = system: CCRF-CEM leukemia
[6] = system: COLO 205 colon
[7] = system: DLD-1 colon
[8] = system: DMS 114 small cell lung
[9] = system: DMS 273 small cell lung
[10] = system: EKVX NSCLC
[11] = system: HCC-2998 colon
[12] = system: HCT-116 colon
[13] = system: HL-60(TB) leukemia
[14] = system: HOP-62 NSCLC
[15] = system: HOP-92 NSCLC
[16] = system: HT29 colon
[17] = system: IGROV1 ovarian
[18] = system: K-562 leukemia
[19] = system: KM12 colon
[20] = system: KM20L2 colon
[21] = system: LOX IMVI melanoma
[22] = system: LXFL 529 NSCLC
[23] = system: M14 melanoma
[24] = system: M19-MEL melanoma
[25] = system: MALME-3M melanoma
[26] = system: MOLT-4 leukemia
[27] = system: NCI-H23 lung
[28] = system: NCI-H460 lung
[29] = system: NCI-H522 lung
[30] = system: OVCAR-3 ovarian
[31] = system: OVCAR-5 ovarian
[32] = system: OVCAR-8 ovarian
[33] = system: RPMI-8226 leukemia
[34] = system: RXF 393 renal
[35] = system: SF-539 CNS
[36] = system: SK-MEL-2 melanoma
[37] = system: SK-MEL-28 melanoma
[38] = system: SK-OV-3 ovarian
[39] = system: SNB-19 CNS
[40] = system: SNB-75 CNS
[41] = system: SNB-78 CNS
[42] = system: SW-620 colon
[43] = system: TK-10 renal
[44] = system: U251 CNS
[45] = system: UACC-257 melanoma
[46] = system: UACC-62 melanoma
[47] = system: UO-31 renal
[48] = system: XF 498 CNS
[49] = system: HCT-15 colon
[50] = system: HOP-18 NSCLC
[51] = system: NCI-H226 lung
[52] = system: SF-268 CNS
[53] = system: SF-295 CNS
[54] = system: SN12C renal
[55] = system: SR leukemia
[56] = system: BT-549 breast
[57] = system: CAKI-1 renal
[58] = system: DU-145 prostate
[59] = system: HS 578T breast
[60] = system: MCF7 breast
[61] = system: MDA-MB-231 breast
[62] = system: MDA-MB-435
[63] = system: MDA-N
[64] = system: NCI/ADR-RES ovarian
[65] = system: OVCAR-4 ovarian
[66] = system: PC-3 prostate
[67] = system: SK-MEL-5 melanoma
[68] = system: T-47D breast

With `O=C(NC12CC3CC(CC(F)(C3)C1)C2)c1ccccc1` the TGI [1] was > 100 µM, the TGI [2] was > 100 µM and the TGI [3] was > 100 µM. The TGI [4] was > 100 µM, the TGI [5] was > 100 µM and the TGI [6] was > 100 µM. The TGI [7] was > 100 µM, the TGI [8] was > 100 µM and the TGI [9] was > 100 µM. For the same molecule, the TGI [10] was > 100 µM, the TGI [11] was > 100 µM and the TGI [12] was > 100 µM. For the same molecule, the TGI [13] was > 100 µM, the TGI [14] was > 100 µM and the TGI [15] was > 100 µM. The TGI [16] was > 100 µM, the TGI [17] was > 100 µM and the TGI [18] was > 100 µM. For the same molecule, the TGI [19] was > 100 µM, the TGI [20] was > 100 µM and the TGI [21] was > 100 µM. The TGI [22] was > 100 µM, the TGI [23] was > 100 µM and the TGI [24] was > 100 µM. For the same molecule, the TGI [25] was > 100 µM, the TGI [26] was > 100 µM and the TGI [27] was > 100 µM. For the same molecule, the TGI [28] was > 100 µM, the TGI [29] was > 100 µM and the TGI [30] was > 100 µM. The TGI [31] was > 100 µM, the TGI [32] was > 100 µM and the TGI [33] was > 100 µM. The TGI [34] was > 100 µM, the TGI [35] was > 100 µM and the TGI [36] was > 100 µM. For the same molecule, the TGI [37] was > 100 µM, the TGI [38] was > 100 µM and the TGI [39] was > 100 µM. For the same molecule, the TGI [40] was > 100 µM, the TGI [41] was > 100 µM and the TGI [42] was > 100 µM. The TGI [43] was > 100 µM, the TGI [44] was > 100 µM and the TGI [45] was > 100 µM. For the same molecule, the TGI [46] was > 100 µM, the TGI [47] was > 100 µM and the TGI [48] was > 100 µM.

In the case of `COc1cc(Nc2nc3ccccc3nc2-c2cccs2)cc(OC)c1OC`, the TGI [1] is reported as > 100 µM, the TGI [3] is reported as > 100 µM and the TGI [4] is reported as > 100 µM. The TGI [5] was > 100 µM, the TGI [6] was > 10 µM and the TGI [7] was > 100 µM. For the same molecule, the TGI [9] was > 100 µM, the TGI [10] was > 100 µM and the TGI [11] was > 100 µM. For the same molecule, the TGI [12] was > 100 µM, the TGI [49] was > 100 µM and the TGI [13] was > 100 µM. For the same molecule, the TGI [50] was > 100 µM, the TGI [14] was > 100 µM and the TGI [15] was 83.9 µM. The TGI [16] was > 100 µM, the TGI [20] was > 100 µM and the TGI [21] was > 100 µM. For the same molecule, the TGI [22] was > 100 µM, the TGI [24] was > 100 µM and the TGI [25] was > 100 µM. For the same molecule, the TGI [26] was > 100 µM, the TGI [51] was > 100 µM and the TGI [27] was > 100 µM. The TGI [28] was > 100 µM, the TGI [30] was > 100 µM and the TGI [31] was > 100 µM. The TGI [32] was > 10 µM, the TGI [33] was > 100 µM and the TGI [34] was > 100 µM. For the same molecule, the TGI [52] was > 100 µM, the TGI [53] was > 100 µM and the TGI [35] was > 100 µM. The TGI [36] was > 100 µM, the TGI [37] was > 100 µM and the TGI [38] was > 100 µM. The TGI [54] was > 100 µM, the TGI [39] was > 100 µM and the TGI [40] was > 100 µM. For the same molecule, the TGI [41] was > 100 µM, the TGI [55] was > 100 µM and the TGI [42] was > 100 µM. The TGI [43] was > 100 µM, the TGI [44] was > 10 µM and the TGI [45] was > 100 µM. The TGI [46] was > 100 µM, the TGI [47] was > 10 µM and the TGI [48] was 76.6 µM.

With `COc1cc2ncnc(Nc3cccc(Cl)c3)c2cc1OC` the TGI [1] was 44.1 µM, the TGI [2] was 9.84 µM and the TGI [3] was 49 µM. The TGI [4] was 54.5 µM, the TGI [56] was 13.7 µM and the TGI [57] was 25.5 µM. The TGI [5] was 19.6 µM, the TGI [6] was > 70.5 µM and the TGI [58] was 38.3 µM. For the same molecule, the TGI [10] was 15.7 µM, the TGI [11] was 54.3 µM and the TGI [12] was 46.2 µM. For the same molecule, the TGI [49] was 52.8 µM, the TGI [13] was 62.4 µM and the TGI [14] was 58.7 µM. It also gave a TGI [15] of 38.9 µM, a TGI [59] of 25 µM and a TGI [16] of 34.9 µM. It also gave a TGI [17] of 10.3 µM, a TGI [18] of 47.3 µM and a TGI [19] of 28.8 µM. It also gave a TGI [21] of 43 µM, a TGI [23] of 25.4 µM and a TGI [25] of 19.8 µM. The TGI [60] was 72.2 µM, the TGI [61] was 54 µM and the TGI [62] was 34.1 µM. For the same molecule, the TGI [63] was 42.6 µM, the TGI [26] was 54.2 µM and the TGI [51] was 14.8 µM. The TGI [27] was 44.5 µM, the TGI [28] was 40.7 µM and the TGI [29] was 18.4 µM. It also gave a TGI [64] of 20.3 µM, a TGI [30] of 35.8 µM and a TGI [65] of 75.8 µM. It also gave a TGI [31] of 47.2 µM, a TGI [32] of 26.1 µM and a TGI [66] of 70.2 µM. The TGI [33] was 42.3 µM, the TGI [34] was 26.8 µM and the TGI [52] was 53.9 µM. For the same molecule, the TGI [53] was 42.4 µM, the TGI [35] was 32.8 µM and the TGI [36] was 30 µM. It also gave a TGI [37] of 42.6 µM, a TGI [67] of 17.4 µM and a TGI [38] of 28.9 µM. For the same molecule, the TGI [54] was 45.8 µM, the TGI [39] was 82.1 µM and the TGI [40] was 13.4 µM. For the same molecule, the TGI [55] was 24.1 µM, the TGI [42] was 45 µM and the TGI [68] was > 67.1 µM. The TGI [43] was 3.61 µM, the TGI [44] was 79.4 µM and the TGI [45] was 37.4 µM. The TGI [46] was 22 µM and the TGI [47] was 44 µM.

With `O/N=C/c1ncccc1C1OCCO1` the TGI [1] was > 100 µM, the TGI [3] was > 100 µM and the TGI [4] was > 100 µM. The TGI [57] was > 100 µM, the TGI [5] was > 100 µM and the TGI [6] was > 100 µM. For the same molecule, the TGI [7] was > 100 µM, the TGI [8] was > 100 µM and the TGI [9] was > 100 µM. For the same molecule, the TGI [10] was > 100 µM, the TGI [12] was > 100 µM and the TGI [49] was > 100 µM. The TGI [13] was > 100 µM, the TGI [50] was > 100 µM and the TGI [14] was > 100 µM. For the same molecule, the TGI [15] was > 100 µM, the TGI [16] was > 100 µM and the TGI [17] was > 100 µM. The TGI [18] was > 100 µM, the TGI [19] was > 100 µM and the TGI [20] was > 100 µM. The TGI [21] was > 100 µM, the TGI [22] was > 100 µM and the TGI [23] was > 100 µM. The TGI [24] was > 100 µM, the TGI [25] was > 100 µM and the TGI [26] was > 100 µM. For the same molecule, the TGI [51] was > 100 µM, the TGI [27] was > 100 µM and the TGI [28] was > 100 µM. The TGI [29] was > 100 µM, the TGI [30] was > 100 µM and the TGI [65] was > 100 µM. For the same molecule, the TGI [31] was > 100 µM, the TGI [32] was > 100 µM and the TGI [34] was > 100 µM. For the same molecule, the TGI [52] was > 100 µM, the TGI [53] was > 100 µM and the TGI [35] was > 100 µM. For the same molecule, the TGI [36] was > 100 µM, the TGI [37] was > 100 µM and the TGI [67] was > 100 µM. For the same molecule, the TGI [38] was > 100 µM, the TGI [54] was > 100 µM and the TGI [39] was > 100 µM. For the same molecule, the TGI [40] was > 100 µM, the TGI [41] was > 100 µM and the TGI [55] was > 100 µM. For the same molecule, the TGI [42] was > 100 µM, the TGI [43] was > 100 µM and the TGI [44] was > 100 µM. The TGI [45] was > 100 µM, the TGI [46] was > 100 µM and the TGI [47] was > 100 µM. For the same molecule, the TGI [48] was > 100 µM.
